Assay results published in publication PMC7297445, “Pharmacokinetic/Pharmacodynamic Determination and Preclinical Pharmacokinetics of the β-Lactamase Inhibitor ETX1317 and Its Orally Available Prodrug ETX0282” (ACS Infectious Diseases, 2020).
Where two headings read alike, the source gives them in different places.

What was measured:
[1] = Intravenous pharmacokinetics of ETX1317; type: in vivo, monkey
Method: (§1) Intravenous pharmacokinetics of ETX1317 investigated in jugular vein cannulated male Sprague–Dawley rats (Charles River Laboratories, n = 3/route) at a dose of 10 mg/kg formulated in 0.9% saline. Oral pharmacokinetics of ETX0282 was evaluated at a 10 mg/kg equivalent dose of ETX1317 formulated in 25:75 PEG 400:WFI. The pH of each formulation was verified to fall within a range of 4–7 and were confirmed to be in solution prior to dosing. Potency was verified by LC/MS/MS. Dose volumes were 5 and 10 mL/kg for ETX1317(i.v.) and ETX0282(p.o.), respectively for rats. In both dog (male, 3/route) and monkey (male, 3/route) studies, i.v. and p.o. doses were formulated on 25:75 PEG 400:WFI (pH ∼5) and administered at a dose of ∼1 mg/kg. Dose volume was 1 mL/kg for both routes in dogs and monkeys with the i.v. dose infused over 15 min. For oral doses, gavage tubes were flushed with 10 mL after administration of the dose. i.v. doses were sterile-filtered through 0.22 μm PVDF membrane prior to administration into the cephalic vein.
(§2) Blood sampling (∼1 mL) for dogs and monkeys was carried out via venipuncture of the jugular vein at the following time points:
(§3) i.v.: pre-dose, 0.083, 0.25 (prior to end of infusion), 0.5, 1, 1.5, 2, 4, 6, 8, 12, and 24 h post-dose
(§4) Blood samples were centrifuged at 3200 rpm for 10 min at approximately 5 °C. Plasma samples (500 μL) were transferred to 96-well plate tubes (MatrixTech, 0.5 mL). An equal amount (500 μL) of SIGMAFAST protease inhibitor solution (1 tablet dissolved in 10 mL distilled water, Sigma-Aldrich Part No. S8820) was added as a preservative to the 96-well plate tubes resulting in a 1:1 dilution. Diluted plasma samples were stored at −80 ± 10 °C.
(§5) Urine collection was collected directly into Nalgene bottles placed under metabolism cages with frozen ice packs to chill urine over the collection interval. Urine was collected 0–12, and 12–24 h post-dose. Following collection of each urine sample, the total urine weight was recorded and 3 mL aliquots were retained for LC/MS/MS analysis.
(§6) Non-compartmental analysis of time vs concentration data for ETX1317, ETX0282, CPD, and CPDP was completed using WinNonlin 8.1 (Pharsite Corporation, Mountain View CA). The maximum concentration (Cmax) was the highest observed concentration; Tmax was the earliest time at which Cmax occurred; and the elimination half-life was estimated as ln 2/kel, where kel is the elimination rate constant derived from the slope of the log concentration versus time profile. The area under the concentration–time curve from 0 h to the last time point (AUC0-tlast) was calculated by linear trapezoidal approximation. Clearance (CL) was estimated as Dose/AUC0-tlast and the steady state volume of distribution (Vd,ss) was estimated as CL* MRT, where MRT = AUMC/AUC (MRT = mean residence time and AUMC = area under the moment curve). Oral bioavailability (F) was determined from ETX1317 concentrations and normalizing doses to free acid equivalence, where F = AUCp.o.*(dosei.v.)/AUCi.v.*(dosep.o.).

Excretion into the bile = settings: in vivo
Method: (§7) Based upon the non-clinical PK data, a range of 60–80% bioavailability and a moderate absorption rate of 0.5–1.0 h^–1 have been considered for humans. In consideration of these predicted parameters, mean percent fT > CT of 1 μg/mL (2× MIC of 0.5 μg/mL) estimates for a 500 mg ETX1317 equiv q12h dose of ETX0282 are summarized in Table S3.

[2] = Intravenous pharmacokinetics of ETX1317; type: in vivo; settings: male, dog, i.v. 1 mg/kg
Method: as §1, §2, §3, §4, §5, §6

[3] = Mouse oral pharmacokinetics (satellite infected animals); type: in vivo
[4] = Human PK prediction (allometric scaling); settings: for CL/F / V/F: predicted human
Text: The methodology utilized for prediction of human PK of ETX1317 was consistent with methods used in support of similar chemotypes such as avibactam and ETX2514.[43] Human predictions for volume of distribution (Vd,ss) and clearance (CL) were within 2-fold of observed mean data obtained in Phase 1 studies, with renal clearance as the predominant clearance mechanism.[44],[45] Pharmacokinetic and excretion data from rats, dogs, and monkeys were used collectively for the projection of ETX1317 PK. Liver S9 incubations were also performed across all species (including human) to confirm consistent conversion of ETX0282 to ETX1317 at projected dose levels of ETX0282.[42] Human PK prediction of ETX1317 was completed using single species allometry for volume of distribution from dog PK and dog and monkey single species scaling using liver blood flow to predict non-renal clearance (CLNR).[46] […] While urinary excretion of ETX1317 was lower in dogs relative to monkeys and rats, human renal clearance (CLR) was predicted using dog-human renal correlation,[47] as this method has been highly predictive for compounds that are generally eliminated via renal excretion. The elimination half-life was estimated based upon the combined use of predicted parameters for clearance and volume of distribution, where T1/2 = ln 2*Vd,ss/CLtotal. Allometric scaling predicted human Vd,ss of 0.35 L/kg.
as §7

[5] = male, monkey, plasma, iv, i.v. 0.87 mg/kg
[6] = unbound ETX1317 after oral ETX0282 10 mg/kg
[7] = unbound ETX1317 after oral ETX0282 50 mg/kg
[8] = unbound ETX1317 after oral ETX0282 200 mg/kg
[9] = unbound ETX1317 after oral ETX0282 400 mg/kg

CC1=C[C@@H](C(N)=O)N2C[C@@H]1N(O[C@H](F)C(=O)O)C2=O [ETX1317]
renal clearance as % of total clearance ([1]; based upon excretion in the urine, range 23–63%): ~40%
AUC [1, 5]: 2680 ± 210 ng·h/mL
Cmax [1, 5]: 3120 ± 230 ng/mL
half-life [1, 5]: 1.1 ± 0.1 h
clearance ([1]; male, monkey, plasma, iv, i.v. 0.87 mg/kg, read-out: CL): 5.7 ± 0.7 mL/min/kg
Vd ([1]; male, monkey, plasma, iv, i.v. 0.87 mg/kg, read-out: Vd,ss): 0.31 ± 0.02 L/kg
clearance ([1]; male, monkey, urine and plasma, iv, i.v. 0.87 mg/kg, read-out: renal CL): 2.2 mL/min/kg
excretion into the bile (Excretion into the bile): minimal excretion
AUC ([2]; plasma): 2760 ± 340 ng·h/mL
Cmax ([2]; plasma): 2270 ± 490 ng/mL
half-life ([2]; plasma): 0.8 ± 0.1 h
clearance ([2]; plasma, read-out: CL): 5.7 ± 0.7 mL/min/kg
Vd ([2]; plasma, read-out: Vd,ss): 0.38 ± 0.05 L/kg
clearance ([2]; urine and plasma, read-out: renal CL): 1.1 ± 0.3 mL/min/kg
half-life ([3]; mouse, in vivo, mice, once formed from ETX0282): 1.3 h
%Time > f[CT] 0.25 μg/mL ([3]; oral ETX0282 10 mg/kg): 47%
%Time > f[CT] 0.5 μg/mL ([3]; oral ETX0282 10 mg/kg): 25%
%Time > f[CT] 1.0 μg/mL ([3]; oral ETX0282 10 mg/kg): 12%
%Time > f[CT] 2.0 μg/mL ([3]; oral ETX0282 10 mg/kg): 8%
%Time > f[CT] 0.25 μg/mL ([3]; oral ETX0282 50 mg/kg): 88%
%Time > f[CT] 0.5 μg/mL ([3]; oral ETX0282 50 mg/kg): 50%
%Time > f[CT] 1.0 μg/mL ([3]; oral ETX0282 50 mg/kg): 29%
%Time > f[CT] 2.0 μg/mL ([3]; oral ETX0282 50 mg/kg): 28%
%Time > f[CT] 0.25 μg/mL ([3]; oral ETX0282 200 mg/kg): 100%
%Time > f[CT] 0.5 μg/mL ([3]; oral ETX0282 200 mg/kg): 100%
%Time > f[CT] 1.0 μg/mL ([3]; oral ETX0282 200 mg/kg): 58%
%Time > f[CT] 2.0 μg/mL ([3]; oral ETX0282 200 mg/kg): 35%
%Time > f[CT] 0.25 μg/mL ([3]; oral ETX0282 400 mg/kg): 100%
%Time > f[CT] 0.5 μg/mL ([3]; oral ETX0282 400 mg/kg): 100%
%Time > f[CT] 1.0 μg/mL ([3]; oral ETX0282 400 mg/kg): 75%
%Time > f[CT] 2.0 μg/mL ([3]; oral ETX0282 400 mg/kg): 38%
fAUClast [3, 6]: 4700 ng·h/mL
fCmax [3, 6]: 3.9 µg/mL
fAUClast [3, 7]: 23000 ng·h/mL
fCmax [3, 7]: 21 µg/mL
fAUClast [3, 8]: 61000 ng·h/mL
fCmax [3, 8]: 57 µg/mL
fAUClast [3, 9]: 73000 ng·h/mL
fCmax [3, 9]: 90 µg/mL
predicted human half-life ([4]; T1/2 = ln 2*Vd,ss/CLtotal): 1.2 to 1.6 h
CL/F ([4]; F% 60): 17.6 to 23.7 L/h
V/F ([4]; F% 60): 41 L
CL/F ([4]; F% 70): 15.1 to 20.3 L/h
V/F ([4]; F% 70): 35 L
CL/F ([4]; F% 80): 13.2 to 17.8 L/h
V/F ([4]; F% 80): 31 L
